Results on one molecule are retold here after article PMC4710668, “Bioactivation of food genotoxicants 5-hydroxymethylfurfural and furfuryl alcohol by sulfotransferases from human, mouse and rat: a comparative study” (Archives of Toxicology, 2014).

In assay [1] the test system is rSult2a4. The experiment in a line: HMF sulfoconjugation assay. The format is biochemical, rat. On the procedure: (§1) Cytosolic fractions containing individual SULT forms were prepared from transgenic S. typhimurium TA1538. Table S1 in the Supplementary Material provides a summary of the thirty SULTs used in the current study together with references describing the cloning of the respective S. typhimurium TA1538 strains. The expressed SULT forms are denoted with the prefixes h, m and r for human, mouse and rat enzymes, respectively. Bacteria were grown in Luria Broth medium containing ampicillin (100 µg/ml) by stirring for 8 h at 200 revolutions/min at 37 °C. The bacterial suspensions were centrifuged at 5,000 g for 10 min. The sediments were washed twice with 25 ml of 10 mM potassium phosphate buffer (pH 7.4)/50 mM potassium chloride (KCP buffer) and centrifuged again. The pellets were taken up in 800 µl KCP buffer and sonicated thrice for 15 s with 30 s pauses in between. The soluble fraction was attained by centrifuging for 1 h at 100,000 g. The supernatants (in the following termed cytosolic preparations) were frozen at −80 °C. The protein concentrations were determined according to a bicinchoninic acid (BCA) assay protocol. The SULT concentrations in the cytosolic preparations were estimated after electrophoretic separation and immunodetection using inclusion bodies of different SULT forms as standards (Teubner et al. [2007]). The preparation of SULT inclusion bodies and the immunodetection of SULTs is described in the Supplementary Material, which also contains a representative immunoblot of different amounts of rSult1a1standard and a cytosolic preparation of S. typhimurium expressing rSult1a1 (Fig. S1).
(§2) The reactions were conducted in mixtures of 100 µl containing 25–200 µg protein, 50 mM potassium phosphate buffer (pH 7.4), 5 mM MgCl2, 50 µM PAPS and different concentrations of HMF at 37 °C. Preliminary experiments ensured that measurements were recorded under ‘linear’ conditions, i.e., doubling of protein concentration or incubation time was doubling the amount of sulfate ester formed. The reactions were stopped after 30 min by adding 300 µl ice-cold 2-propanol, mixed and centrifuged at 15,000 g for 10 min.
(§3) SMF concentrations of the clear supernatants were analyzed by UPLC-MS/MS. The protocol was adapted from the quantification of SMF in plasma samples of HMF-treated mice (Monien et al. [2009]). In short, the supernatants were analyzed using a UPLC system (Waters) connected to a Quattro Premier XE tandem quadrupole mass spectrometer (Waters) using the negative electrospray ionization mode. Samples of 4 µl were injected into a HSS T3 column (1.8 µm, 2.1 × 100 mm; Waters) and eluted with an isocratic flow of 0.35 ml/min 10 mM ammonium acetate/methanol (95:5). The fragmentation reactions of SMF yielding two principal ions, the sulfate ion radical (m/z = 204.9 → 96.0) and the protonated sulfonate ion (m/z = 204.9 → 81.0) were monitored. The tune parameters were as follows: temperature of the electrospray source 120 °C; desolvation temperature 475 °C; desolvation gas nitrogen (800 l/h); cone gas nitrogen (100 l/h); collision gas argon (indicated cell pressure ~5 × 10^−3 mbar). For the fragmentation of SMF, collision energies were 20 and 23 eV for the transitions m/z = 204.9 → 81.0 and m/z = 204.9 → 96.0, respectively. The dwell time was set to 100 ms, and capillary voltage was set to 0.35 kV. The cone and RF1 lens voltages were 32 and 0.2 V, respectively. SMF was quantified using an external calibration line that was linear in the concentration range of 1.0 nM (4 fmol/injection) to 2,500 (10 pmol/injection) SMF (r ^2 ≥ 0.99). Data acquisition and handling were performed with MassLynx 4.1 software (Waters). The limit of detection (LOD) for this technique of 2.5 nM SMF has been reported (Monien et al. [2009]). In the current study, this corresponds to 10 fmol SMF per injection or a reaction rate of 0.5 pmol SMF/mg/min.

In assay [2] the test system is rSult2a3. Nature of the assay: HMF sulfoconjugation assay. The format is biochemical, rat. On the procedure: as §1, §2, §3

Take `O=Cc1ccc(CO)o1` [HMF, 5-Hydroxymethylfurfural]: the Rate of sulfoconjugation in assay [1] (0.1 mM HMF) is recorded as below 0.5 pmol/mg/min; in assay [1] (1 mM HMF) it was below 0.5 pmol/mg/min; in assay [1] (10 mM HMF), below 0.5 pmol/mg/min; in assay [1] (100 mM HMF) it was below 0.5 pmol/mg/min; in assay [2] (0.1 mM HMF) it was 0.6 ± 0.0 pmol/mg/min; in assay [2] (1 mM HMF), 6.2 ± 0.2 pmol/mg/min. The Rate of sulfoconjugation in assay [2] (10 mM HMF) is 62.8 ± 4.6 pmol/mg/min; in assay [2] (100 mM HMF) it was 76.5 ± 8.8 pmol/mg/min.
